Data published in PMC10331583, “Control of fibrosis with enhanced safety via asymmetric inhibition of prolyl‐tRNA synthetase 1” (EMBO Molecular Medicine, 2023).
Where “and” joins values, the source holds several entries; their conditions need not be identical. Identical values can stand only once.

Key:
[1] = system: C57BL/6 mice; experiment: Bleomycin‐induced lung fibrosis, therapeutic model 1 (compounds from a week after bleomycin); type: in vivo
Procedure: To examine therapeutic efficacy of DWN12088, all experiments were conducted following the international guidelines on the ethical use of experimental animals and approved by the Institutional Animal Care and Use Committee of Daewoong Pharmaceutical (IACUC‐21‐014). C57BL/6 mice (7–8‐week‐old, male, obtained from Orient Bio) were anesthetized with Zoletil and injected intratracheally with 100 μl bleomycin (2 units/kg) (Merck, B8416) to induce lung fibrosis. A group of disease‐free mice (“untreated”) were injected with PBS instead of bleomycin. After a week, mice treated with bleomycin were randomized to (i) vehicle (saline), (ii) HF 0.05 mg/kg, (iii) HF 0.1 mg/kg, and (iv) DWN12088 10 mg/kg groups (n = 5 for each group) according to their body weight. The drugs were orally administered once daily for 2 weeks, and then the outcome was analyzed. For the experiments testing the effect of the compounds 2 weeks after bleomycin challenge, the experiment was approved by IACUC of Daewoong Pharmaceutical (IACUC‐22‐009). The experimental procedures were performed following the methods described previously, with the exception that the compounds were administered 2 weeks after bleomycin challenge. The experiments were conducted as non‐blind tests.
Mice were anesthetized with Zoletil for 10 min, and a portable mouse pulse oximeter (Veterinary Pulse Oximeter, Berry Electronic) was placed on each mouse's body. The measurements were continued to allow the recording of 3 min of a stable signal.
The collagen contents of lung tissues were measured using Sircol™ soluble collagen assay (Biocolor Ltd., S1000) following the manufacturer's instructions. Briefly, the right lung lobes were homogenized, and collagen was solubilized in 0.5 M acetic acid. Tissue extracts were incubated with Sirius red dye, and the absorbance was determined at 540 nm using a spectrophotometer. The amount of collagen was expressed relative to the wet weight of the tissues.
The lung tissues were fixed in paraformaldehyde and embedded in paraffin. The paraffin‐embedded blocks were sectioned at 4 μm and then mounted onto glass slides. After deparaffinization and rehydration, the slides were fixed with Bouin's solution (Sigma Aldrich, HT10132‐1L) for 1 h. Then, the slides were incubated with hematoxylin (Sigma Aldrich, MHS16‐500ML), Biebrich Scarlet (Sigma Aldrich, B‐6008) and acid fuchsin (Sigma Aldrich, A‐3908), phosphomolybdic (DAEJUNG, 6531‐4105) and phosphotungstic acid (DAEJUNG, 6539‐4105), aniline blue (DAEJUNG, 1087‐4125), and then 1% (v/v) acetic acid (DUKSAN, UN2789). After dehydration, the slides were mounted onto cover slips and scanned using slide scanner (3D HISTECH, Pannoramic MIDI). Fibrotic area of the images was quantified by using Image J plugin, color deconvolution 2.

[2] = biological target: T1, PARS1 F1097A/E1123A/R1152L (FA/EA/RL) mutant (Homo sapiens, UniProt P07814, E1123A/F1097A/R1152L); experiment: Microscale thermophoresis (MST), PARS1 mutant; type: binding; conditions: for Fraction bound: single replicates
T1 construct: His‐PARS1 (1001–1,512 aa); made in house; host or cells: Escherichia coli
T1 sequence (P07814 1001-1512 F1097A/E1123A/R1152L): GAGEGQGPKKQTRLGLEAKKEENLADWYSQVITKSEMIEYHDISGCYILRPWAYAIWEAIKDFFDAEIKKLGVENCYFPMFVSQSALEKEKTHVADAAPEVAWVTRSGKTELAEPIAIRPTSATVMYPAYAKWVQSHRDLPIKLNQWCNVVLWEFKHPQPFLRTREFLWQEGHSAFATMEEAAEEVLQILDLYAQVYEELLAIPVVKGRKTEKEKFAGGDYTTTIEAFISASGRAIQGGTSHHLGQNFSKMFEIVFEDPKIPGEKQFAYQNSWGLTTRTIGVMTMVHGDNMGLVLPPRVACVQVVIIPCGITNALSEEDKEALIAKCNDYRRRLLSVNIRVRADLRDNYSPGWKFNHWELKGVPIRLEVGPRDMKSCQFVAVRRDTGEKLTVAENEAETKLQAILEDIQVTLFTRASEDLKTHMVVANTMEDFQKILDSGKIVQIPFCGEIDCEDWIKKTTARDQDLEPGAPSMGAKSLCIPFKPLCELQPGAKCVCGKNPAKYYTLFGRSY

[3] = system: phosphorylation of SMAD2; experiment: Phosphorylation of SMAD2 (TGF‐β pathway), immunoblot; type: cell-based, human; conditions: 15 h; for Relative ratio of p-SMAD2/SMAD2, average / Relative ratio of p-SMAD2/SMAD2: + TGF-β; for Relative ratio of p-SMAD2/SMAD2: single experiments
Procedure: The levels of proteins were determined by immunoblot assay. […] The lowest concentration at which protein levels started to decrease was normalized by IC50 values for collagen level and used as the y‐axis value. […] The slope and R^2 value were calculated using GraphPad Prism 7.0. […] The activation of the TGF‐β pathway was determined by monitoring the phosphorylation of SMAD2. Immunoblot images are representative of three biologically independent experiments. • The band intensities of the immunoblot images in (C) were quantified using ImageJ (n = 3; One‐way ANOVA; *P < 0.05, **P < 0.01, ***P < 0.001; mean ± SEM). Source data are available online for this figure.

O[C@H]1CCCN[C@@H]1CCCn1cnc2c(Cl)c(Cl)ccc21 [DWN12088]
efficacy (SpO2, BALF total cell count, collagen contents) ([1]; 10 mg/kg oral once a day, 2 weeks, versus nintedanib 60 mg/kg and pirfenidone 200 mg/kg (Fig EV4D–F)): comparable with nintedanib and pirfenidone | BALF total cell count, average ([1]; BLM +, 10 mg/kg): 8.46 x105 cells | BALF total cell count, single animal ([1]; BLM +, 10 mg/kg): 9.8 x105 cells and 8.9 x105 cells and 6.4 x105 cells and 7.5 x105 cells and 9.7 x105 cells | Collagen contents, average ([1]; BLM +, 10 mg/kg): 213.8 μg/right lung | Collagen contents, single animal ([1]; BLM +, 10 mg/kg): 175 μg/right lung and 275 μg/right lung and 198 μg/right lung and 165 μg/right lung and 256 μg/right lung | Fibrotic area, average ([1]; BLM +, 10 mg/kg): 173.8 % of control | Fibrotic area, single animal ([1]; BLM +, 10 mg/kg): 230.8 % of control and 181.2 % of control and 123.5 % of control and 151.5 % of control and 182.0 % of control | SpO2, average ([1]; BLM +, 10 mg/kg): 81.0% | SpO2, single animal ([1]; BLM +, 10 mg/kg): 87% and 81% and 88% and 72% and 77% | collagen deposition, Masson's trichrome staining ([1]; lung tissue (Fig 1H and I)): decreased collagen deposition in the interstitial spaces | fibrotic properties ([1]; model 1, drug administration from day 7): significantly reduced fibrotic properties | in vivo effective dose of DWN12088 relative to that of HF ([1]; mouse, in vivo): about 100 times | Fraction bound, average ([2]; Dose 30.5176 nM): -0.2196 | Fraction bound ([2]; Dose 30.5176 nM): -0.0531 and -0.3613 and -0.2444 | Fraction bound, average ([2]; Dose 61.0352 nM): -0.1437 | Fraction bound ([2]; Dose 61.0352 nM): -0.0707 and -0.1506 and -0.2099 | Fraction bound, average ([2]; Dose 122.07 nM): 0.0563 | Fraction bound ([2]; Dose 122.07 nM): 0.1029 and 0.0530 and 0.0131 | Fraction bound, average ([2]; Dose 244.141 nM): 0.2244 | Fraction bound ([2]; Dose 244.141 nM): 0.3322 and 0.1837 and 0.1572 | Fraction bound, average ([2]; Dose 488.281 nM): -0.0768 | Fraction bound ([2]; Dose 488.281 nM): -0.1204 and -0.1742 and 0.0641 | Fraction bound, average ([2]; Dose 976.562 nM): -0.0355 | Fraction bound ([2]; Dose 976.562 nM): -0.2804 and 0.0014 and 0.1724 | Fraction bound, average ([2]; Dose 1953.12 nM): 0.1140 | Fraction bound ([2]; Dose 1953.12 nM): 0.1616 and 0.0279 and 0.1524 | Fraction bound, average ([2]; Dose 3906.25 nM): 0.1368 | Fraction bound ([2]; Dose 3906.25 nM): 8.74e-5 and 0.2618 and 0.1487 | Fraction bound, average ([2]; Dose 7812.5 nM): -0.0582 | Fraction bound ([2]; Dose 7812.5 nM): -0.2477 and -0.0355 and 0.1087 | Fraction bound, average ([2]; Dose 15625 nM): 0.2874 | Fraction bound ([2]; Dose 15625 nM): 0.1991 and 0.1856 and 0.4774 | Fraction bound, average ([2]; Dose 31250 nM): 0.2894 | Fraction bound ([2]; Dose 31250 nM): 0.2431 and 0.4002 and 0.2248 | Fraction bound, average ([2]; Dose 62500 nM): 0.2591 | Fraction bound ([2]; Dose 62500 nM): 0.5108 and 0.3402 and -0.0738 | Fraction bound, average ([2]; Dose 125000 nM): 0.4857 | Fraction bound ([2]; Dose 125000 nM): 0.4645 and 0.6139 and 0.3786 | Fraction bound, average ([2]; Dose 250000 nM): 0.6790 | Fraction bound ([2]; Dose 250000 nM): 0.6147 and 0.6365 and 0.7858 | Fraction bound, average ([2]; Dose 500000 nM): 0.8538 | Fraction bound ([2]; Dose 500000 nM): 0.9212 and 0.7677 and 0.8725 | Fraction bound, average ([2]; Dose 1000000 nM): 0.8907 | Fraction bound ([2]; Dose 1000000 nM): 0.9649 and 0.9924 and 0.7150 | Kd ([2]; Kd (Fit Results), His-PARS1 FA/EA/RL, doses of the sheet in nM): 114000 nM | Kd ([2]; Kd, MT (FA/EA/RL), 5 mM ATP, mean ± SD, unit inferred): 114000 ± 57400 nM | Relative ratio of p-SMAD2/SMAD2, average ([3]; 0.2 μM): 0.76 | Relative ratio of p-SMAD2/SMAD2 ([3]; 0.2 μM): 0.61 and 0.94 and 0.72 | Relative ratio of p-SMAD2/SMAD2, average ([3]; 0.6 μM): 0.75 | Relative ratio of p-SMAD2/SMAD2 ([3]; 0.6 μM): 0.65 and 0.71 and 0.87 | Relative ratio of p-SMAD2/SMAD2, average ([3]; 2 μM): 0.70 | Relative ratio of p-SMAD2/SMAD2 ([3]; 2 μM): 0.48 and 0.69 and 0.92 | Relative ratio of p-SMAD2/SMAD2, average ([3]; 6 μM): 0.78 | Relative ratio of p-SMAD2/SMAD2 ([3]; 6 μM): 0.66 and 0.77 and 0.91 | Relative ratio of p-SMAD2/SMAD2, average ([3]; 20 μM): 0.41 | Relative ratio of p-SMAD2/SMAD2, average ([3]; 60 μM): 0.16 | SMAD2 phosphorylation ([3]; TGF‐β 2 ng/ml): reduced SMAD2 phosphorylation
